Test results taken from BigSolDB 2.1.

c1nc[nH]n1
Conditions	solubility (mole fraction)
in ethanol, 283.18 K	0.131
in ethanol, 288.25 K	0.147
in ethanol, 293.21 K	0.164
in ethanol, 298.18 K	0.184
in ethanol, 303.15 K	0.205
in ethanol, 308.14 K	0.228
in ethanol, 313.21 K	0.253
in ethanol, 318.23 K	0.28
in ethanol, 323.22 K	0.308
in ethanol, 328.27 K	0.339
in ethanol, 333.28 K	0.371
in ethyl acetate, 283.21 K	0.0268
in ethyl acetate, 288.29 K	0.032
in ethyl acetate, 293.21 K	0.0365
in ethyl acetate, 298.19 K	0.041
in ethyl acetate, 303.18 K	0.0457
in ethyl acetate, 308.27 K	0.0513
in ethyl acetate, 313.2 K	0.0578
in ethyl acetate, 318.21 K	0.066
in ethyl acetate, 323.16 K	0.0759
in ethyl acetate, 328.17 K	0.0884
in ethyl acetate, 333.27 K	0.104
in ethyl formate, 283.21 K	0.0208
in ethyl formate, 288.23 K	0.0246
in ethyl formate, 293.29 K	0.0286
in ethyl formate, 298.24 K	0.0331
in ethyl formate, 303.26 K	0.0384
in ethyl formate, 308.17 K	0.0446
in ethyl formate, 313.24 K	0.0524
in ethyl formate, 318.27 K	0.0617
in ethyl formate, 323.31 K	0.073
in isopropanol, 283.17 K	0.129
in isopropanol, 288.21 K	0.144
in isopropanol, 293.16 K	0.159
in isopropanol, 298.23 K	0.176
in isopropanol, 303.27 K	0.193
in isopropanol, 308.19 K	0.211
in isopropanol, 313.24 K	0.232
in isopropanol, 318.22 K	0.254
in isopropanol, 323.27 K	0.278
in isopropanol, 328.2 K	0.304
in isopropanol, 333.19 K	0.332
in isopropanol, 338.18 K	0.363
in isopropanol, 343.26 K	0.397
in methyl acetate, 283.27 K	0.0968
in methyl acetate, 288.21 K	0.106
in methyl acetate, 293.19 K	0.117
in methyl acetate, 298.21 K	0.128
in methyl acetate, 303.2 K	0.141
in methyl acetate, 308.29 K	0.155
in methyl acetate, 313.18 K	0.171
in methyl acetate, 318.16 K	0.189
in methyl acetate, 323.24 K	0.21
in n-butyl acetate, 283.2 K	0.0141
in n-butyl acetate, 288.23 K	0.0166
in n-butyl acetate, 293.26 K	0.0202
in n-butyl acetate, 298.22 K	0.024
in n-butyl acetate, 303.24 K	0.0279
in n-butyl acetate, 308.17 K	0.032
in n-butyl acetate, 313.28 K	0.037
in n-butyl acetate, 318.21 K	0.0428
in n-butyl acetate, 323.16 K	0.0498
in n-butyl acetate, 328.24 K	0.0586
in n-butyl acetate, 333.19 K	0.0688
in n-butyl acetate, 338.18 K	0.0809
in n-butyl acetate, 343.23 K	0.0955
in n-butyl acetate, 348.18 K	0.113
in n-butyl acetate, 353.19 K	0.136
in n-butyl acetate, 358.18 K	0.167
in n-butyl acetate, 363.26 K	0.211
in n-propanol, 283.17 K	0.12
in n-propanol, 288.18 K	0.135
in n-propanol, 293.27 K	0.15
in n-propanol, 298.19 K	0.168
in n-propanol, 303.21 K	0.187
in n-propanol, 308.23 K	0.208
in n-propanol, 313.27 K	0.231
in n-propanol, 318.2 K	0.256
in n-propanol, 323.22 K	0.283
in n-propanol, 328.28 K	0.313
in n-propanol, 333.18 K	0.344
in n-propanol, 338.23 K	0.378
in n-propanol, 343.29 K	0.415
in propylene glycol, 283.16 K	0.174
in propylene glycol, 288.27 K	0.212
in propylene glycol, 293.26 K	0.249
in propylene glycol, 298.16 K	0.284
in propylene glycol, 303.19 K	0.319
in propylene glycol, 308.18 K	0.353
in propylene glycol, 313.2 K	0.386
in propylene glycol, 318.28 K	0.419
in propylene glycol, 323.21 K	0.451
in propylene glycol, 328.22 K	0.483
in propylene glycol, 333.23 K	0.514
in propylene glycol, 338.29 K	0.545
in propylene glycol, 343.21 K	0.574
in propylene glycol, 348.23 K	0.604
in propylene glycol, 353.24 K	0.633
